We go through twelve molecules from patent US20100137346A1, “DESFE[…] ACTINIDE DEC[…]” (priority 2006, published 2010).

Like-named read-outs stand apart in the source and are kept apart here.

The conditions of assay [1]: cited from earlier work; for relative percentages of the iron excreted in the stool and urine / Iron Clearing Efficiency (%): orally to C. apella primates, 150 μmol/kg, data from ref 19 / ref 17.
The nature of assay [2]: Chelator-induced uranium excretion (urine + bile, 24 h) in bile duct-cannulated rat model. The format is in vivo. As to the method: (§1) Desferrithiocin Analogue Induced Excretion of Uranium. In order to compare results with previous chelator-induced iron excretion data, the uranium clearance studies were carried out in a bile duct-cannulated rat model. The animals were given uranyl acetate dihydrate SC at a dose of 5 mg/kg (the actual dose of uranium is 2.8 mg/kg). Bile and urine samples were collected for 24 hours after dosing. Kidneys were removed from selected animals and tissue uranium concentration measured. At least three animals were utilized in each experimental group. Data from two separate control studies (uranyl acetate/ no chelator) have now been combined for a total of 14 control animals. All uranium concentrations were measured using ICPMS. The data are reported as the total quantity of uranium excreted [urine +bile]; the mode of excretion [urine/bile] is also given. In addition the percentage of the administered dose of uranium cleared and chelator-induced uranium excretion vs the controls is also given. Four positive controls were evaluated: DTPA (13, Table 1) given as its trisodium calcium salt, DFO (14), N,N′-bis(2hydroxybenzyl)ethylenediamine-N,N′-diacetic acid, monosodium salt (NaHBED, 15) and the hydroxypyridone CP94 (16) shown to bind uranium [Pashalidis, et al., Effective complex formation in the interaction of 1,2-dimethyl-3-hydroxypyrid-4-one (Deferiprone or L1) with uranium(VI), Journal of Radioanalytical and Nuclear Chemistry 1999; 242:181-184.] The total metal cleared after 24 h in control rats was 10% of the administered dose. When DTPA, 13, was given IP or PO at 300 μmol/kg immediately after uranium, the excretion was 17% and 8% of the administered dose respectively (p>0.05). However, when the drug was given IP at a dose of 600 μmol/kg immediately post-metal, the uranium excretion was significant, 20% (p<0.005). This is consistent with previously published data using a similar animal model.[Domingo, et al., Comparative effects of the chelators sodium 4,5-dihydroxybenzene-1,3-disulfonate (Tiron) and diethylenetriaminepentaacetic acid (DTPA) on acute uranium nephrotoxicity in rats, Toxicology 1997; 118:49-59] DFO (14) and CP94 (16) given IP immediately post uranyl acetate were ineffective.
Desferrithiocin Analogue-Induced Excretion of Uranium. In order to compare results with previous chelator-induced iron excretion data, the uranium clearance studies were carried out in a bile duct-cannulated rat model. The animals were given uranyl acetate dihydrate SC at a dose of 5 mg/kg (the actual dose of uranium is 2.8 mg/kg). Bile and urine samples were collected for 24 hours after dosing. Kidneys were removed from selected animals and tissue uranium concentration measured. At least three animals were utilized in each experimental group. Data from two separate control studies (uranyl acetate/ no chelator) are combined for a total of 14 control animals. All uranium concentrations were measured using ICPMS. The data are reported as the total quantity of uranium excreted [urine +bile]; the mode of excretion [urine/bile] is also given. In addition the percentage of the administered dose of uranium cleared and chelator-induced uranium excretion vs the controls is also given. Four positive controls were evaluated: DTPA (1, Table 1) given as its trisodium calcium salt, DFO (2), N,N -bis(2-hydroxybenzyl)ethylenediamine-N,N-diacetic acid, monosodium salt (NaHBED, 3) and the hydroxypyridone CP94 (4) shown to bind uranium. The total metal cleared after 24 h in control rats was 10% of the administered dose. When DTPA, 1, was given IP or PO at 300 μmol/kg immediately after uranium, the excretion was 17% and 8% of the administered dose respectively (p>0.05). However, when the drug was given IP at a dose of 600 μmol/kg immediately post metal, the uranium excretion was significant, 20% (p<0.005). This is consistent with previously published data using a similar animal model.^2 DFO (2) and CP94 (4) given IP immediately post uranyl acetate were ineffective.

Assay [3] is described as follows: Renal uranium content in uranyl acetate-treated bile duct-cannulated rats (FIG. 3). The format is in vivo, rat. As to the method: as §1
The most promising analogue in the (S)-2-(2,4-dihydroxyphenyl)-4,5-dihydro-4-thiazolinecarboxylic series is the methoxy analogue (S)-4′-(CH3O)-DADMDFT (11). Given IP at 300 μmol/kg 0.5 h before uranyl acetate or immediately thereafter, nearly 30% of the metal was cleared (Table 1). This was also true if the drug was given IP 0.5 or 2 h post metal. The drug retains some efficacy given 4 h post uranium; 16% of the metal is excreted (p<0.006). When the chelator was given SC immediately post uranium, 40% of the administered metal was cleared. The increased excretion is probably associated with a slower absorption of the ligand. The data from rodents given the drug orally is even more encouraging (Table 1). […] The most profound data are associated with uranium decorporation from the kidneys (FIG. 3). When DTPA is given IP or PO at a dose of 300 μmol/kg immediately post metal, there is no reduction in renal uranium relative to controls. However, (S)-4′-(CH3O)-DADMDFT (11) given orally at a dose of 300 μmol/kg immediately post metal reduces renal uranium by 37% (p<0.005).
There is a small (16%) reduction when the drug is given PO at a dose of 300 μmol/kg 2 h post uranium. However, when 11 is given PO at a dose of 600 μmol/kg 0.5 h post metal, the renal uranium content is reduced by 76% (p<0.001). When given PO at the same dose 1 h post uranium exposure, the reduction is still significant, 42% (p<0.006). In all sets of ligands, the most lipophilic chelator is always the most toxic. […] On the basis of this finding, a less lipophilic, more water-soluble ligand than 12 was assembled, (S)-4′-(HO)-DADFT-PE (18, Table 1), a polyether analogue.

Where [4] appears, read: Rattus norvegicus, ip, 24 h, 300 μmol/kg IP Immediate, read-out: Chelator-Induced U Excretion/Control.

As to `COc1ccc(C2=N[C@@H](C(=O)O)CS2)c(O)c1` [drawing 24], in assay [1], the “relative percentages of the iron excreted in the stool and urine” value (“relative percentages” below) is given as 81/19; the “Iron Clearing Efficiency (%)” value is reported as 16.2 ± 3.2%.

As for `COc1ccc(C2=N[C@@](C)(C(=O)O)CS2)c(O)c1` [drawing 25], in assay [1], the “relative percentages” value was 91/9; the “Iron Clearing Efficiency (%)” value was 24.4 ± 10.8%.

With “desferrioxamine [DFO, reference compound]”, in assay [2] (given IP immediately post uranyl acetate, doses per Table 1), the “uranium clearance, in words” value is recorded as “ineffective”. For the same molecule, the ICE in assay [1] (subcutaneous administration, iron-loaded Cebus apella primate) is recorded as 5.0±2.6%.

As to `O=C(O)[C@H]1CSC(c2ccc(O)cc2O)=N1` [drawing 22], in assay [1], the “relative percentages” value is 70/30; the “Iron Clearing Efficiency (%)” value is 4.2 ± 1.4%.

In the case of `C[C@@]1(C(=O)O)CSC(c2ccc(O)cc2O)=N1` [drawing 10], in assay [2] (300 μmol/kg IP Immediate), the “% of Administered Dose Cleared” value is reported as 19%, the “Uranium Excretion” value stood at 523 ± 180 µg/kg and the “Uranium Excretion [urine/bite]” value was 92/8. Further, the response vs control in vivo at 300 µmol/kg in assay [2] (setting [4]) turned out to be 190%.

On to `O=C(O)[C@H]1CSC(c2ncccc2O)=N1` [Compound 2, (S)-4,5-dihydro-2-(3-hydroxy-2-pyridinyl)-4-thiazolecarboxylic acid], for which the ICE in assay [1] (iron-overloaded C. apella primate) was 4.8%.

Turning to `O=C(O)CN(CCN(CC(=O)O)CC(=O)O)CCN(CC(=O)O)CC(=O)O` [DTPA, diethylenetriaminepentaacetic acid, reference compound], the “% of Administered Dose Cleared” value in assay [2] (300 μmol/kg IP Immediate) stood at 17%; in assay [2] (300 μmol/kg PO Immediate) it was 8%; in assay [2] (600 μmol/kg IP Immediate) it was 20%. The “reduction in renal uranium relative to controls” value in assay [3] (IP 300 μmol/kg immediately post metal) and in assay [3] (PO 300 μmol/kg immediately post metal) was “no reduction” each time.

For `CC(=O)N(O)CCCNC(=O)CCC(=O)N(O)CCCCCNC(=O)CCC(=O)N(O)CCCN`, in assay [2] (300 μmol/kg IP Immediate), the “% of Administered Dose Cleared” value was found to be 16%, the “Uranium Excretion” value turned out to be 438 ± 191 µg/kg and the “Uranium Excretion [urine/bite]” value is given as 100/0. Besides, the response vs control in vivo at 300 µmol/kg in assay [2] (setting [4]) amounted to 160%.

Regarding `O=C([O-])CN(CCN(CC(=O)O)Cc1ccccc1O)Cc1ccccc1O.[Na+]` [drawing 6], in assay [2] (150 μmol/kg IP Immediate), the “% of Administered Dose Cleared” value amounted to 17%, the “Uranium Excretion” value worked out at 483 ± 119 µg/kg and the “Uranium Excretion [urine/bite]” value is 97/3. Besides, the response vs control in vivo at 150 µmol/kg in assay [2] (Rattus norvegicus, ip, 24 h, 150 μmol/kg IP Immediate, read-out: Chelator-Induced U Excretion/Control) was determined as 170%.

As to `C[C@]1(C(=O)O)CSC(c2ccc(O)cc2O)=N1` [drawing 23], in assay [1], the “relative percentages” value is on record as 86/14; the “Iron Clearing Efficiency (%)” value was 13.4 ± 5%.

Consider `CC1(C)SC(c2ccccc2O)=NC1C(=O)O` (stereo in doubt) [Compound 17, (S)-4,5-dihydro-5,5-dimethyl-2-(2-hydroxyphenyl)-4-thiazolecarboxylic acid], for which, in assay [2] (300 μmol/kg IP Immediate), the “% of Administered Dose Cleared” value came out at 26%. Also, in assay [2] (IP 300 μmol/kg, given 0.5 h post metal), the “uranium excretion, in words” value is on record as “insignificant”.

As to `COc1ccc(C2=N[C@H](C(=O)O)CS2)c(O)c1`, the “% of Administered Dose Cleared” value in assay [2] (300 μmol/kg IP 0.5 h Post) is reported as 33%; in assay [2] (300 μmol/kg IP 0.5 h Pre), 29%; in assay [2] (300 μmol/kg IP 2 h Post), 30%; in assay [2] (300 μmol/kg IP 4 h Post), 16%; in assay [2] (300 μmol/kg IP Immediate), 30%; in assay [2] (300 μmol/kg PO 2 h Post), 18%. Moreover, the “% of Administered Dose Cleared” value in assay [2] (300 μmol/kg PO Immediate) was found to be 23%; in assay [2] (300 μmol/kg SC Immediate), 40%; in assay [2] (600 μmol/kg PO 0.5 h Post) it was 25%; in assay [2] (600 μmol/kg PO 1 h Post), 26%. Also, the “Uranium Excretion” value in assay [2] (300 μmol/kg IP 0.5 h Post) came to 917 ± 177 µg/kg; in assay [2] (300 μmol/kg IP 0.5 h Pre), 815 ± 211 µg/kg; in assay [2] (300 μmol/kg IP 2 h Post) it was 847 ± 335 µg/kg; in assay [2] (300 μmol/kg IP 4 h Post), 444 ± 119 µg/kg; in assay [2] (300 μmol/kg IP Immediate), 838 ± 166 µg/kg; in assay [2] (300 μmol/kg PO 2 h Post), 507 ± 182 µg/kg. The “Uranium Excretion” value was found to be 642 ± 101 µg/kg in assay [2] (300 μmol/kg PO Immediate), 1130 ± 246 µg/kg in assay [2] (300 μmol/kg SC Immediate), 698 ± 166 µg/kg in assay [2] (600 μmol/kg PO 0.5 h Post) and 723 ± 126 µg/kg in assay [2] (600 μmol/kg PO 1 h Post). For the same molecule, the “Uranium Excretion [urine/bite]” value in assay [2] (300 μmol/kg IP 0.5 h Post) is 16/84; in assay [2] (300 μmol/kg IP 0.5 h Pre), 48/52; in assay [2] (300 μmol/kg IP 2 h Post) it was 46/54; in assay [2] (300 μmol/kg IP 4 h Post), 66/34; in assay [2] (300 μmol/kg IP Immediate), 64/36; in assay [2] (300 μmol/kg PO 2 h Post) it was 53/47. Moreover, the “Uranium Excretion [urine/bite]” value was 43/57 in assay [2] (300 μmol/kg PO Immediate), 13/87 in assay [2] (300 μmol/kg SC Immediate), 24/76 in assay [2] (600 μmol/kg PO 0.5 h Post) and 28/72 in assay [2] (600 μmol/kg PO 1 h Post). The response vs control in vivo at 300 µmol/kg in assay [2] (Rattus norvegicus, ip, 24 h, 300 μmol/kg IP 0.5 h Post, read-out: Chelator-Induced U Excretion/Control) amounted to 330%; in assay [2] (Rattus norvegicus, ip, 24 h, 300 μmol/kg IP 0.5 h Pre, read-out: Chelator-Induced U Excretion/Control), 290%; in assay [2] (Rattus norvegicus, ip, 24 h, 300 μmol/kg IP 2 h Post, read-out: Chelator-Induced U Excretion/Control), 300%; in assay [2] (Rattus norvegicus, ip, 24 h, 300 μmol/kg IP 4 h Post, read-out: Chelator-Induced U Excretion/Control), 160%; in assay [2] (setting [4]), 300%; in assay [2] (Rattus norvegicus, po, 24 h, 300 μmol/kg PO 2 h Post, read-out: Chelator-Induced U Excretion/Control) it was 180%. Moreover, the response vs control in vivo at 300 µmol/kg in assay [2] (Rattus norvegicus, po, 24 h, 300 μmol/kg PO Immediate, read-out: Chelator-Induced U Excretion/Control) turned out to be 230%; in assay [2] (Rattus norvegicus, sc, 24 h, 300 μmol/kg SC Immediate, read-out: Chelator-Induced U Excretion/Control), 400%. Besides, the response vs control in vivo at 600 µmol/kg in assay [2] (Rattus norvegicus, po, 24 h, 600 μmol/kg PO 0.5 h Post, read-out: Chelator-Induced U Excretion/Control) came out at 250%; in assay [2] (Rattus norvegicus, po, 24 h, 600 μmol/kg PO 1 h Post, read-out: Chelator-Induced U Excretion/Control) it was 260%.
